Results reported in patent US12421232B2, “Kinase inhibitor compounds and compositions and methods of use” (ICAHN SCHOOL OF MEDICINE AT MOUNT SINAI, priority 2018, dated 2025).
Like-named read-outs stand apart in the source and are kept apart here.

Experiments:
Assay in all cases: KINOMEscan Assay (DiscoverX)
Format in all cases: binding
Conditions in all cases: read-out: % DMSO Ctrl
KIT(V559D,V654A) = biological target: T1, KIT(V559D,V654A) (Homo sapiens, UniProt P10721, V559D/V654A)
T1 construct: purchased DiscoverX

PIK3C2G = biological target: T2, PIK3C2G (Homo sapiens, UniProt O75747)
T2 construct: purchased DiscoverX
T2 sequence (O75747 1-1486): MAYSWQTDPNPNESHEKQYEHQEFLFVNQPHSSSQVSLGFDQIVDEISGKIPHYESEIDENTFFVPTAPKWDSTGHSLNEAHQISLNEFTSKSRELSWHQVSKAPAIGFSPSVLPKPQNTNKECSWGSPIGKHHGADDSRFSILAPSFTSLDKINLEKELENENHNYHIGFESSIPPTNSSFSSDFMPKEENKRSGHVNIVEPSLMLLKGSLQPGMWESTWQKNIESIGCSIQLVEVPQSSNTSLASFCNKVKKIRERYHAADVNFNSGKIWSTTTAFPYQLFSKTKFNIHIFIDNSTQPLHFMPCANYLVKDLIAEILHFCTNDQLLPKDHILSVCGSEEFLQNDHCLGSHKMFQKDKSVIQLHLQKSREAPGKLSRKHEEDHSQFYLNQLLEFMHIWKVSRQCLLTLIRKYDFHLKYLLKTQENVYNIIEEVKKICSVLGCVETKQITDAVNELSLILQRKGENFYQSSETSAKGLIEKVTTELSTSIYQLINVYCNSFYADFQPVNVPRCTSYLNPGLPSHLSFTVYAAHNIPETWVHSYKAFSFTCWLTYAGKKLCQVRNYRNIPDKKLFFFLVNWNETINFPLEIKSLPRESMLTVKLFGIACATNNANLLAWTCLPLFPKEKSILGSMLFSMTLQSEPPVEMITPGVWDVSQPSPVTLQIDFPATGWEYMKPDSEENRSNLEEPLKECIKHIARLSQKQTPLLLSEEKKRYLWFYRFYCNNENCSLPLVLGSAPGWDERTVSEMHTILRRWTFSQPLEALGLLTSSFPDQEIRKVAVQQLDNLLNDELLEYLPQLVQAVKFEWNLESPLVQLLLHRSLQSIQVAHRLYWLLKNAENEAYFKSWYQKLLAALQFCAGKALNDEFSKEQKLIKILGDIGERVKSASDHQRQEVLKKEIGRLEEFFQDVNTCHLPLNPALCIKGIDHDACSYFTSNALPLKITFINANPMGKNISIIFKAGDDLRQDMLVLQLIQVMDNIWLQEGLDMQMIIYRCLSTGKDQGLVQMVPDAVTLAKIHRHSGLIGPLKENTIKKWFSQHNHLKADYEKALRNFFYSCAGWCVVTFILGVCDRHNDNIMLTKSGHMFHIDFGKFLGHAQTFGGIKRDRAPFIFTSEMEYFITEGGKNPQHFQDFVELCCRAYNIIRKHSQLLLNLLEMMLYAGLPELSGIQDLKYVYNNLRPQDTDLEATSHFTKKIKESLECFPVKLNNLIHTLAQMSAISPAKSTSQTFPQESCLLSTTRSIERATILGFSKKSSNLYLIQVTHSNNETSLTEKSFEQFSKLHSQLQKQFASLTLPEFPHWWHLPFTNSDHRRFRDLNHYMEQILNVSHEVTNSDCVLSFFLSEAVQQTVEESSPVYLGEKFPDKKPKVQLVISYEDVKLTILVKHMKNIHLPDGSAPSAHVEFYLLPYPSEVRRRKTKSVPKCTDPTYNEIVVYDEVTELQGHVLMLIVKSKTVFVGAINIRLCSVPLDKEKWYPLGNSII

IRAK3 = biological target: T3, IRAK3 (Homo sapiens, UniProt Q9Y616)
T3 construct: purchased DiscoverX
T3 sequence (Q9Y616 1-596): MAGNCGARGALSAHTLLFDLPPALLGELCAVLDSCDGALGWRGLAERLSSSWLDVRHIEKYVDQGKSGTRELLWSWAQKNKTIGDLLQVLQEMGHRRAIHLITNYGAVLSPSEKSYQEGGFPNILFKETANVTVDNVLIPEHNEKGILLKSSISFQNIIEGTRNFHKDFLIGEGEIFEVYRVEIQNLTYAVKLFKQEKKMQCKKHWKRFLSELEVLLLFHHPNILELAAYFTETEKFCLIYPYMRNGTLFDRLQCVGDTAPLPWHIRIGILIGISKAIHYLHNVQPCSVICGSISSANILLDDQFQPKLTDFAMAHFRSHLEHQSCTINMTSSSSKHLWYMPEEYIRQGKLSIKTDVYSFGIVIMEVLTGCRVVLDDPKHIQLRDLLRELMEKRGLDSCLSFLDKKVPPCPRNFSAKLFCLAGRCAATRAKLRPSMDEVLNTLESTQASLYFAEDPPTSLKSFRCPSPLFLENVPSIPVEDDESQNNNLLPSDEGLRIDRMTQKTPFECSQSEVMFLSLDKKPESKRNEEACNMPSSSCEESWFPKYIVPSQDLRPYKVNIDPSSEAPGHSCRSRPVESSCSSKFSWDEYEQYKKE

CSNK2A1 = biological target: T4, CSNK2A1 (Homo sapiens, UniProt P68400)
T4 construct: purchased DiscoverX
T4 sequence (P68400 whole entry): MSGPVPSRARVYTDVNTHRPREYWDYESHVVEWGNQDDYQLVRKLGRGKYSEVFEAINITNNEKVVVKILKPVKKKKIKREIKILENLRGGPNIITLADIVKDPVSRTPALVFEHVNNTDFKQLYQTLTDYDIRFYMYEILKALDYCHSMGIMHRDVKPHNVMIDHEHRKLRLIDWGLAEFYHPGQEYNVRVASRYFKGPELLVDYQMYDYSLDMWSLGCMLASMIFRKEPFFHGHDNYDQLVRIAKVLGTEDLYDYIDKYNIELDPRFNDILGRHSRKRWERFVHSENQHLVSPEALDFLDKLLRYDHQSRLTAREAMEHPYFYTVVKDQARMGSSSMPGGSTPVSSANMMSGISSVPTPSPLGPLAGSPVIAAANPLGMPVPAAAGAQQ

T1 sequence (P10721 26-976 V559D/V654A): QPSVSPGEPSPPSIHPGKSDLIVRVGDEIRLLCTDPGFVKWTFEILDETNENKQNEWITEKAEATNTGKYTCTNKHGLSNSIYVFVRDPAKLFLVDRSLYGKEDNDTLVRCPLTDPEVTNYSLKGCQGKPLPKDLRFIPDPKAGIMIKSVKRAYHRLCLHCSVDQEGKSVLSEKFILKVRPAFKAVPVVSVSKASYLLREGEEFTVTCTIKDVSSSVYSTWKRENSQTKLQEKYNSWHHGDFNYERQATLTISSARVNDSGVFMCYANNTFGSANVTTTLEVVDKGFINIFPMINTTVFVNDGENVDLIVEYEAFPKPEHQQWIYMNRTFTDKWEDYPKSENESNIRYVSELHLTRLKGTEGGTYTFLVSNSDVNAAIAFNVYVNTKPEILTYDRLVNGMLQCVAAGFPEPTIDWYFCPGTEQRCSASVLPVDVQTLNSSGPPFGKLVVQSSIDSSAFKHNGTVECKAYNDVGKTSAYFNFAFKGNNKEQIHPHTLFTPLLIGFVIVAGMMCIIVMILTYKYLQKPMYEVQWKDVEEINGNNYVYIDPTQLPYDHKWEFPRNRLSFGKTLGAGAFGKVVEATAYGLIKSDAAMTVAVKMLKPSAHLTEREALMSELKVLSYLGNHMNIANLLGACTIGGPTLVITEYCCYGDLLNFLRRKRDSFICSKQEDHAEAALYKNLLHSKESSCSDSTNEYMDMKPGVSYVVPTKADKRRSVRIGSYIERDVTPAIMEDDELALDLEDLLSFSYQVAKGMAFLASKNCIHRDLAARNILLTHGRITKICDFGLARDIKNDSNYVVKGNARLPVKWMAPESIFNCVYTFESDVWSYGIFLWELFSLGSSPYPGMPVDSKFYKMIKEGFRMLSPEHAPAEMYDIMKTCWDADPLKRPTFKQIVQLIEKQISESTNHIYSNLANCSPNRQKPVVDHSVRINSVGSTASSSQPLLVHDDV

Row | Compound | remaining binding at 10 µM (KIT(V559D,V654A); KIT(V559D,V654A) mutant, 10 μM) [%] | remaining binding at 10 µM (PIK3C2G; PIK3C2G, 10 μM) [%] | remaining binding at 10 µM (IRAK3; IRAK3, 10 μM) [%] | remaining binding at 10 µM (KIT(V559D,V654A)) [%] | remaining binding at 10 µM (CSNK2A1) [%] | remaining binding at 10 µM (PIK3C2G) [%] | remaining binding at 10 µM (IRAK3) [%] | remaining binding at 10 µM (CSNK2A1; CSNK2A1, 10 μM) [%]
1 | COc1ccc2c(c1)[nH]c1c(C)nc(CO)cc12 [Compound 2-8, (1-Methyl-7-methoxy-9H-pyrido[3,4-b]indol-3-yl)methanol] | 100 | 36 | 70 | – | – | – | – | –
2 | COc1ccc2c3ccnc(C)c3n(CCCc3noc(N)n3)c2c1 [Compound 20-13, 3-(3-(7-Methoxy-1-methyl-β-carbolin-9-yl)propyl)-5-amino-1,2,4-oxadiazole] | – | – | – | 98 | 49 | 1.2 | 62 | –
3 | C#CCn1c2cc(OC)ccc2c2ccnc(C)c21 [Compound 20-23a, 3-(7-Methoxy-1-methyl-β-carbolin-9-yl)-propan-1-yne] | – | – | 34 | 100 | – | 38 | – | 46
4 | COc1ccc2c(c1)[nH]c1c(C)nccc12 [Harmine, reference compound] | – | – | – | – | 11 | – | 35 | –
